From US20040242886A1, “Monocyclic diazodioxide based Bcl-2 protein antagonists related applications” (priority 2003, published 2004)
Like-named read-outs stand apart in the source and are kept apart here.

How the values were obtained:
[1] = system: A549 human lung cells expressing low Bcl-2 and high Bcl-XL levels; assay: Acute cytotoxicity (apoptotic activity), Alamar Blue viability, A549 cells; assay type: cell-based
Experimental: (§1) The biological activity of the compounds provided herein were assessed in cellular system by the method similar to the one described by Amundson et al. (Amundson, S. A. et al, Cancer Research 2000, 60, 6101-6110), which is incorporated herein by reference in its entirety. The compounds were tested for acute cytotoxicity (apoptotic activity) using two human cancer cell lines expressing high levels of either Bcl-2 or BCl-XL. HL60, human leukemic cells expressing high Bcl-2 and low BCl-XL levels, and A549 human lung cells expressing low Bcl-2 and high BCl-XL levels, were incubated with the compounds at concentrations between 0.5 and 1000 μg/mL for 4 hours at 37° C., 5% CO2. The number of viable cells were measured by mitochondrial transformation of Alamar Blue to a fluorescent dye. LC50 values for each test compound and controls are provided in the individual examples that follow.
(§2) The compounds provided herein were tested for acute cytoxicity (apoptotic activity) using two human cancer cell lines expressing high levels of either Bcl-2 or BCl-XL. HL-60 cells expressing high Bcl-2 and low Bcl-XL levels, and A549 human lung cells expressing low Bcl-2 and high Bcl-XL levels were incubated with the compounds provided herein at concentrations between 0.5 and 1000 μg/mL for 4 hours at 37° C., 5% CO2. The number of viable cells were measured by mitochondrial transformation of Alamar Blue to a fluorescent dye. As negative controls, the compounds were tested against the cell lines with low levels of Bcl-2 expression, viz., MDA-453 cells. LC50 values for each compound and controls were determined.

[2] = system: HL60, human leukemic cells expressing high Bcl-2 and low Bcl-XL levels; assay: Acute cytotoxicity (apoptotic activity), Alamar Blue viability, HL-60 cells; assay type: cell-based
Experimental: as §1, §2

cell = conditions: cited from earlier work
[3] = Homo sapiens, A549, 4 h; read-out: LC 50 (μM) A549
[4] = Homo sapiens, HL-60, 4 h; read-out: LC 50 (μM) HL-60
[5] = Homo sapiens, A549; 4 hours at 37° C.; read-out: LC50 value in A549 cell lines
[6] = Homo sapiens, HL-60; 4 hours at 37° C.; read-out: LC50 value in HL-60 cell lines

SMILES | CC50 [1, 3] [µM] | CC50 [2, 4] [µM] | further results
O=C(O)c1ccc(S(=O)(=O)c2ccc(S(=O)(=O)C3CCCCC3)[n+]([O-])n2)cc1 [compound 57] | > 200 | > 200 | 
[O-][n+]1nc(Cl)c2ccccc2c1Cl [compound 33] | 50 to 200 | 50 to 200 | 
O=S(=O)(Cc1ccccc1)c1ccc(S(=O)(=O)Cc2ccccc2)[n+]([O-])n1 [compound 14] | > 200 | > 200 | 
CCCCS(=O)(=O)c1ccc(S(=O)(=O)CCCC)[n+]([O-])n1 [compound 24] | > 200 | 50 to 200 | 
CCCC[C@H]1C(=O)O[C@H](C)[C@H](NC(=O)c2cccc(NC=O)c2O)C(=O)O[C@@H](C)[C@@H]1OC(=O)CC(C)C [compound 2] |  |  | CC50 (cell): 1.2 µM
[O-][n+]1ccccc1Cl [compound 29] | > 200 | > 200 | 
[O-][n+]1nc(Sc2ccccc2)ccc1Sc1ccccc1 [compound 5] |  | > 200 | 
O=S(=O)(c1ccncc1)c1ccc(S(=O)(=O)C2CCCCC2)[n+]([O-])n1 [compound 60] | > 200 | 50 to 200 | 
O=S(=O)(c1ccc(S(=O)(=O)C2CCCC2)[n+]([O-])n1)C1CCCC1 [compound 13] | > 200 | < 50 | 
CCSc1ccc(S(=O)(=O)C2CCCCC2)n[n+]1[O-] [compound 38] | > 200 | > 200 | 
O=S(=O)(c1ccccc1)c1ccc(S(=O)(=O)C2CCCCC2)[n+]([O-])n1 [Example 5, 3-benzenesulfonyl-6-cyclohexanesulfonyl-pyridazine-1-oxide] |  |  | CC50 [1, 5]: 279 µM; CC50 [2, 6]: 32.9 µM
O=S(=O)(c1ccc(S(=O)(=O)C2CCCCC2)[n+]([O-])n1)C1CCCCC1 [Example 3, 3,6-bis-cyclohexanesulfonyl-pyridazine-1-oxide] |  |  | CC50 [1, 5]: 192 µM; CC50 [2, 6]: 32.3 µM
CC(=O)Oc1ccc(S(=O)(=O)c2ccc(S(=O)(=O)C3CCCCC3)[n+]([O-])n2)cc1 [compound 51] | > 200 | 50 to 200 | 
O=S(=O)(c1ccccc1)c1ccc(S(=O)(=O)C2CCCCC2)n[n+]1[O-] [compound 41] | > 200 | < 50 | 
COc1ccc(Sc2ccc(Sc3ccc(OC)cc3)[n+]([O-])n2)cc1 [compound 10] | > 200 | > 200 | 
[O-][n+]1nc(Cl)ccc1SC1CCCCC1 [compound 26] | > 200 | > 200 | 
CCS(=O)(=O)c1ccc(S(=O)(=O)CC)[n+]([O-])n1 [compound 12] | 50 to 200 | 50 to 200 | 
Cc1cc(Cl)[n+]([O-])nc1Cl [compound 17] | > 200 | > 200 | 
O=S(=O)(c1ccc(-c2ccccc2)n[n+]1[O-])C1CCCCC1 [compound 61] | > 200 | > 200 | 
COc1ccccc1S(=O)(=O)c1ccc(S(=O)(=O)C2CCCCC2)[n+]([O-])n1 [compound 39] | 50 to 200 | < 50 | 

SMILES | CC50 [1, 3] [µM] | CC50 [2, 4] [µM] | further results
[O-][n+]1nc(Sc2ccccc2)ccc1Sc1ccccc1 [pyridazine, 3,6-bis(phenylthio)-, 1-oxide] |  |  | CC50 [2, 6]: 58.9 µM
COc1ccccc1S(=O)(=O)c1ccc(S(=O)(=O)c2ccccc2OC)[n+]([O-])n1 [compound 22] | > 200 | < 50 | 
O=S(=O)(c1ccccc1)c1ccc(S(=O)(=O)c2ccccc2)[n+]([O-])n1 [Example 1, 3,6-bis(benzenesulfonyl)pyridazine-1-oxide] |  |  | CC50 [1, 5]: 268 µM; CC50 [2, 6]: 20.5 µM
CCOc1ccc(S(=O)(=O)C2CCCCC2)[n+]([O-])n1 [compound 31] | > 200 | > 200 | 
[O-][n+]1nc(Sc2ccccn2)ccc1Sc1ccccn1 [compound 7, reference compound] | > 200 | > 200 | 
Cc1ccc(S(=O)(=O)c2ccc(S(=O)(=O)C3CCCCC3)[n+]([O-])n2)cc1 [compound 49] | > 200 | 50 to 200 | 
O=S(=O)(c1ccc(Cl)n[n+]1[O-])C1CCCCC1 [compound 28] | > 200 | < 50 | 
O=S(=O)(c1ccc(Cl)c[n+]1[O-])C1CCCCC1 [compound 37] | > 200 | > 200 | 
CCS(=O)(=O)c1ccc(S(=O)(=O)C2CCCCC2)[n+]([O-])n1 [compound 36] | 50 to 200 | < 50 | 
COC(=O)CCS(=O)(=O)c1ccc(S(=O)(=O)C2CCCCC2)[n+]([O-])n1 [compound 48] | > 200 | < 50 | 
O=S(=O)(c1ccc(S(=O)(=O)C2CCCCC2)[n+]([O-])n1)c1ccccc1Cl [compound 42] | 50 to 200 | < 50 | 
O=S(=O)(c1ccc(Cl)n[n+]1[O-])C1CCCCC1 [Example 4, 3-chloro-6-cyclohexanesulfonyl-pyridazine-1-oxide] |  |  | CC50 [1, 5]: 188 µM; CC50 [2, 6]: 20.2 µM
COC(=O)c1ccccc1S(=O)(=O)c1ccc(S(=O)(=O)C2CCCCC2)[n+]([O-])n1 [compound 43] | > 200 | < 50 | 
O=[N+]([O-])c1ccc(Sc2ccc(Sc3ccc([N+](=O)[O-])cc3)nn2)cc1 [compound 9] |  |  | CC50 ([1]; Homo sapiens, A549, 4 h, read-out: LC 50 (μM) A549): > 200 µM; CC50 ([2]; Homo sapiens, HL-60, 4 h, read-out: LC 50 (μM) HL-60): > 200 µM
O=S(=O)(c1ccc(O)cc1)c1ccc(S(=O)(=O)C2CCCCC2)[n+]([O-])n1 [compound 50] | > 200 | 50 to 200 | 
COc1ccc(Cl)[n+]([O-])n1 [compound 3] | > 200 | > 200 | 
O=S(=O)(c1ccc(Sc2ccccc2)n[n+]1[O-])C1CCCCC1 [compound 30] | > 200 | > 200 | 
O=S(=O)(c1ccc(S(=O)(=O)C2CCCCC2)[n+]([O-])n1)C1CCCCC1 [compound 20] | > 200 | < 50 | 
[O-][n+]1nc(Oc2ccccc2)ccc1Oc1ccccc1 [compound 4] | > 200 | > 200 | 
CS(=O)(=O)Nc1ccc(S(=O)(=O)c2ccc(S(=O)(=O)C3CCCCC3)[n+]([O-])n2)cc1 [compound 58] | > 200 | > 200 | 

SMILES | CC50 [1, 3] [µM] | CC50 [2, 4] [µM] | further results
[O-][n+]1nc(Cl)ccc1Cl [compound 2] | > 200 | < 50 | 
O=S(=O)(c1ccccc1)c1ccc(Cl)n[n+]1[O-] [compound 40] | > 200 | < 50 | 
CC(=O)NCCS(=O)(=O)c1ccc(S(=O)(=O)C2CCCCC2)[n+]([O-])n1 [compound 56] | > 200 | > 200 | 
Cc1cccc(S(=O)(=O)c2ccc(S(=O)(=O)c3cccc(C)c3)[n+]([O-])n2)c1 [compound 18] | > 200 | > 200 | 
Cc1cc(Cl)n[n+]([O-])c1Cl [compound 23] | > 200 | > 200 | 
O=C(O)c1ccccc1Sc1ccc(SC2CCCCC2)[n+]([O-])n1 [compound 46] | > 200 | > 200 | 
[O-][n+]1nc(Oc2ccccc2)ccc1Oc1ccccc1 [Example 2, 3,6-diphenoxvpyridazine-1-oxide] |  |  | CC50 ([1]; 4 hours at 37° C.; read-out: LC50 value in A549 cell lines): > 500 µM; CC50 ([2]; 4 hours at 37° C.; read-out: LC50 value in HL-60 cell lines): > 500 µM
O=S(=O)(c1ccccc1)c1ccc(S(=O)(=O)C2CCCCC2)[n+]([O-])n1 [compound 34] | > 200 | < 50 | 
COC(=O)c1ccc(S(=O)(=O)c2ccc(S(=O)(=O)C3CCCCC3)[n+]([O-])n2)cc1 [compound 59] | > 200 | < 50 | 
CC(C)(C)S(=O)(=O)c1ccc(S(=O)(=O)C(C)(C)C)[n+]([O-])n1 [compound 25] | > 200 | 50 to 200 | 
Cc1ccccc1S(=O)(=O)c1ccc(S(=O)(=O)c2ccccc2C)[n+]([O-])n1 [compound 19] | > 200 | 50 to 200 | 
[O-][n+]1cc(Cl)ccc1Cl [compound 35] | > 200 | > 200 | 
Nc1ccc(S(=O)(=O)c2ccc(S(=O)(=O)C3CCCCC3)[n+]([O-])n2)cc1 [compound 55] | > 200 | < 50 | 
O=S(=O)(c1cc[n+]([O-])cc1)c1ccc(S(=O)(=O)C2CCCCC2)[n+]([O-])n1 [compound 53] | > 200 | 50 to 200 | 
Clc1ccc(Cl)nn1 [compound 1] | > 200 | > 200 | 
O=S(=O)(CCO)c1ccc(S(=O)(=O)C2CCCCC2)[n+]([O-])n1 [compound 47] | > 200 | > 200 | 
CCS(=O)(=O)c1n[n+]([O-])c(OC(=O)c2cccc(Cl)c2)c2ccccc12 [compound 45] | > 200 | > 200 | 
O=S(=O)(c1ccccc1)c1n[n+]([O-])c(O)c2ccccc12 [compound 44] | > 200 | > 200 | 
COc1cccc(S(=O)(=O)c2ccc(S(=O)(=O)c3cccc(OC)c3)[n+]([O-])n2)c1 [compound 21] | > 200 | > 200 | 
